Numbered stars: 1 amine (or outer) side, 2 acyl side, 3 side chain; on linkers, the order of the positions; unused ones are H or OH. Bridge positions count the residues as written; N and C are the ends. Square brackets hold non-standard residues; d marks the D form. Peptide text beside a SMILES is read from it. * marks the point of attachment. ξ: configuration not given here. hPhe(3-Cl-4-CF3) = N[C@@H](CCc1ccc(C(F)(F)F)c(Cl)c1)C(=O)O; X101 = CN([C@@H](CCc1cscn1)C(=O)[*:2])[*:1]; NMedβ3hAla = C[C@H](CC(=O)[*:2])N(C)[*:1]; NMeGly(cPent) = CN[C@H](C(=O)O)C1CCCC1; NMehCha = CN[C@@H](CCC1CCCCC1)C(=O)O; NMeCha = CN[C@@H](CC1CCCCC1)C(=O)O; ξPro(4,4-F2) = O=C(O)C1CC(F)(F)CN1; NMeChg = CN[C@H](C(=O)O)C1CCCCC1; N(CH2CH2)2CF2 = FC1(F)CCN(*)CC1; NMeD = CN[C@@H](CC(=O)O)C(=O)O; NMeL = CN[C@@H](CC(C)C)C(=O)O; Cba = N[C@@H](CC1CCC1)C(=O)O; NMeV = CN[C@H](C(=O)O)C(C)C; Ac7c = NC1(C(=O)O)CCCCCC1; NMeA = CN[C@@H](C)C(=O)O; Piperidide = C1CCN(*)CC1; Pyrrolidide = C1CCN(*)C1; Ac5c = NC1(C(=O)O)CCCC1; ξAze = O=C(O)C1CCN1; ξP = O=C(O)C1CCCN1; Sar = CNCC(=O)O

Sequence of GTPase KRas (G12D) and Son of Sevenless Homolog 1 (SOS) (P01116 whole entry G12D): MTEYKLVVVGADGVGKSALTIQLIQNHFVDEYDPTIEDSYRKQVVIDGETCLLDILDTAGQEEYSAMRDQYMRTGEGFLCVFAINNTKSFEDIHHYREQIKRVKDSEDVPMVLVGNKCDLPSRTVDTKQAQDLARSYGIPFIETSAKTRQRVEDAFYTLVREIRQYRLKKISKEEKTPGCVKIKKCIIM
Sequence of GTPase KRas (G12D) and Son of Sevenless Homolog 1 (SOS) (Q07889 whole entry, further chain): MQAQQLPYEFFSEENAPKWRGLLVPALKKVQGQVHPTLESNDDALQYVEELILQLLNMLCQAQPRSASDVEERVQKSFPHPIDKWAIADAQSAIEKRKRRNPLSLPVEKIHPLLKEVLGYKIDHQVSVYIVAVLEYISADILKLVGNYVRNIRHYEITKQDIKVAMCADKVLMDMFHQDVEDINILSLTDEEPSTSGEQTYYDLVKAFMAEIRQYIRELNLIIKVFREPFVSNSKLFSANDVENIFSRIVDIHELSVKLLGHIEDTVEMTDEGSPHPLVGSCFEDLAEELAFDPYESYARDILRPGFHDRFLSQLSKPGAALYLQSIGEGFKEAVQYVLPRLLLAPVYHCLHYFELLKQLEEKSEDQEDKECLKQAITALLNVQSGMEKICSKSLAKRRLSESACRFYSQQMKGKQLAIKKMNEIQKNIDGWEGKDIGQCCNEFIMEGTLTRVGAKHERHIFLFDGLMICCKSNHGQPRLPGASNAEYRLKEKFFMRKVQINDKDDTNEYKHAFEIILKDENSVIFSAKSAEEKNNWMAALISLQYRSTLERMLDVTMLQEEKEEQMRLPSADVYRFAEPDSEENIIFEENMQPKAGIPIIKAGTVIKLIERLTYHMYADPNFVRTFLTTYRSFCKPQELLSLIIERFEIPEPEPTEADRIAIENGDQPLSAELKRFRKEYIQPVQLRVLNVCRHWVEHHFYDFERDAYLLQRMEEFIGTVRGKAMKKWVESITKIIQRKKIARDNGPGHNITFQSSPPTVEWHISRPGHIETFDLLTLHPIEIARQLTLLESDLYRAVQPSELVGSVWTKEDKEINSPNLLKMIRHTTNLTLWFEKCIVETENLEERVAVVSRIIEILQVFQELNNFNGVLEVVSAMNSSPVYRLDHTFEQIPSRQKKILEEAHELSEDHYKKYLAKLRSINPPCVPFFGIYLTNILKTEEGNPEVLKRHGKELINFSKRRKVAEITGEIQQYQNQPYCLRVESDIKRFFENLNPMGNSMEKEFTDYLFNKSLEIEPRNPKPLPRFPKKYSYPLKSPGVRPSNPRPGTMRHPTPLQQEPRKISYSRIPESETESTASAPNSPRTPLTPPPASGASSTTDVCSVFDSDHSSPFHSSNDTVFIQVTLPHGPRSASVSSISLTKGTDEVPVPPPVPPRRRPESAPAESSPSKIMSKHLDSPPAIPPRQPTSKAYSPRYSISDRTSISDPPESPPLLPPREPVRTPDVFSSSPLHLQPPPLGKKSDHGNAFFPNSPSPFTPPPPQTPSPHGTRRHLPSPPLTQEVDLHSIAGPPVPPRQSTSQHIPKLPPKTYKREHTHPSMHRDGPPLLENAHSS

The test addresses GTPase KRas (G12D) and Son of Sevenless Homolog 1 (SOS) (Homo sapiens, UniProt P01116, G12D). As to the kind of experiment: AlphaScreen Assay.
Protocol: Protein-protein interaction inhibition (PPI) between Kras and SOS1 was measured by energy transfer from nickel-conjugated donor beads to streptavidin-conjugated acceptor beads using biotin-tagged human Kras expressed in E. coli and loaded with GDP after purification and His-tagged human SOS1 enzyme. This measurement utilizes the phenomenon in which donor beads are irradiated with light at 680 nm, such that energy is transferred to acceptor beads through singlet oxygen and light at 520-620 nm is detected from the acceptor beads.
In the case of `CC[C@H](C)[C@@H]1NC(=O)[C@H](CC(C)C)N(C)C(=O)C[C@@H](C(=O)N2CCCC2)N(C)C(=O)[C@H](C2CCCC2)N(C)C(=O)C2(CCCC2)NC(=O)[C@H](CC(=O)N2CCC(F)(F)CC2)N(C)C(=O)[C@H](CCc2ccc(C(F)(F)F)c(Cl)c2)NC(=O)CN(C)C(=O)[C@H](CCC2CCCCC2)N(C)C(=O)C2CCN2C(=O)[C@H](C)N(C)C1=O` (some centres undefined) [US20240148821, Compound 26] ([NMeL]I[NMeA][ξAze][NMehCha][Sar][hPhe(3-Cl-4-CF3)][NMeD](N(CH2CH2)2CF2)[Ac5c][NMeGly(cPent)][NMeD]-Pyrrolidide; lactam N-11), the IC50 came out at 4.3 nM.
For the molecule `CC(C)C[C@H]1C(=O)N[C@@H](C2CC2)C(=O)N(C)CC(=O)N(C)CC(=O)N(C)[C@@H](CCC2CCCCC2)C(=O)N(C)CC(=O)N[C@@H](CCc2ccc(C(F)(F)F)c(Cl)c2)C(=O)N2CCCC2C(=O)NC2(CCCC2)C(=O)N(C)[C@@H](C(C)C)C(=O)N[C@H](C)CC(=O)N1C` (some centres undefined) [US20240148821, Compound 101], the midpoint of inhibition, the IC50, lay at 160 nM. This IC50 lies about 37-fold higher than the previous one.
The same measure for `CC[C@H](C)[C@@H]1NC(=O)[C@H](CC(C)C)N(C)C(=O)C[C@@H](C)N(C)C(=O)[C@H](C2CCCC2)N(C)C(=O)C2(CCCC2)NC(=O)C2CC(F)(F)CN2C(=O)[C@H](CCc2ccc(C(F)(F)F)c(Cl)c2)NC(=O)CN(C)C(=O)[C@H](CCC2CCCCC2)N(C)C(=O)CN(C)C(=O)CN(C)C1=O` (some centres undefined) [US20240148821, Compound 107] (cyclo([Ac5c][NMeGly(cPent)][NMedβ3hAla][NMeL]I[Sar][Sar][NMehCha][Sar][hPhe(3-Cl-4-CF3)][ξPro(4,4-F2)])): 4 nM.
The figure for `CCCC[C@@H]1NC(=O)[C@H](Cc2cccc(I)c2)NC(=O)CN(CC)C(=O)[C@H](Cc2ccc(Cl)cc2)N(CC)C(=O)CN(CC)C(=O)CN(CC)C(=O)[C@H]([C@@H](C)CC)NC(=O)[C@H](CC(C)C)N(CC)C(=O)CC(C(=O)N2CCCCC2)N(CC)C(=O)[C@H](CC(C)C)NC(=O)[C@H](Cc2ccccc2OC(F)(F)F)N(CC)C1=O` (some centres undefined) [US20240148821, Compound 111] is 100 nM; for `CC[C@H](C)[C@@H]1NC(=O)[C@H](CC(C)C)N(C)C(=O)C[C@@H](C)NC(=O)[C@H](CC(C)C)N(C)C(=O)C(C)(C)NC(=O)[C@H](CC(C)C)N(C)C(=O)[C@H](CCc2cc(F)c(C(F)(F)F)c(F)c2)NC(=O)CN(C)C(=O)[C@H](C(=O)CC2CCCCC2)N(C)C(=O)CN(C)C(=O)CN(C)C1=O` [US20240148821, Compound 119] it is 39 nM.
In the case of `CC[C@H](C)[C@@H]1NC(=O)[C@H](CCC2CCC2)N(C)C(=O)C[C@@H](C)NC(=O)[C@H](C(C)C)N(C)C(=O)C2(CCCC2)NC(=O)C2CCCN2C(=O)[C@H](CCc2ccc(C(F)(F)F)c(Cl)c2)NC(=O)CN(C)C(=O)[C@H](CC2CCCCC2)N(C)C(=O)CN(C)C(=O)CN(C)C1=O` (some centres undefined) [US20240148821, Compound 230], the IC50 was 39 nM.
The same measure for `C#CCC[C@H]1C(=O)N[C@@H]([C@@H](C)CC)C(=O)N(C)CC(=O)N(C)CC(=O)N(C)[C@@H](CCc2ccc(I)cc2)C(=O)N(C)CC(=O)N[C@@H](CCc2ccc(C(F)(F)F)c(Cl)c2)C(=O)N2CCCC2C(=O)NC2(CCCC2)C(=O)N(C)[C@@H](C2CCCCC2)C(=O)N[C@H](C)CC(=O)N1C` (some centres undefined) [US20240148821, Compound 300]: 9.5 nM; for `CC(C)C[C@H]1C(=O)N[C@@H](CC2CCC2)C(=O)N(C)CC(=O)N(C)CC(=O)N(C)[C@@H](CC2CCCCC2)C(=O)N(C)CC(=O)N[C@@H](CCc2ccc(C(F)(F)F)c(Cl)c2)C(=O)N2CCCC2C(=O)NC2(CCCCCC2)C(=O)N(C)[C@@H](C(C)C)C(=O)N(C)[C@H](C(=O)N2CCCCC2)CC(=O)N1C` (some centres undefined) [US20240148821, Compound 451] ([NMeL][Cba][Sar][Sar][NMeCha][Sar][hPhe(3-Cl-4-CF3)][ξP][Ac7c][NMeV][NMeD]-Piperidide; lactam N-11): 10 nM.
The same measure for `CC[C@H](C)[C@@H]1NC(=O)[C@H](CC(C)C)N(C)C(=O)C[C@@H](C(=O)N2CCCCC2)N(C)C(=O)[C@H](C2CCCCC2)N(C)C(=O)C2(CCCC2)NC(=O)[C@H](CCc2cscn2)N(C)C(=O)[C@H](CCc2ccc(C(F)(F)F)c(Cl)c2)NC(=O)CN(C)C(=O)[C@H](CC2CCCCC2)N(C)C(=O)CN(C)C(=O)CN(C)C1=O` [US20240148821, Compound 500] ([NMeL]I[Sar][Sar][NMeCha][Sar][hPhe(3-Cl-4-CF3)][X101][Ac5c][NMeChg][NMeD]-Piperidide; lactam N-11): 4.8 nM.

Values taken from BindingDB's records for patent US20240148821 (Chugai Seiyaku Kabushiki Kaisha, 2024).
